tested on: RANKL-induced BMM; assay: In vitro osteoclast formation assay (TRAP staining / TRAP activity); format: cell-based, C57/BL6 mice; design: key to Inhibition rate (%): "Inactive" indicates that the % inhibition is less than 30%; conditions: 1 µM; osteoclast differentiation in RANKL-induced BMM; mean ± SD from at least three experiments
Procedure: Bone marrow cells (BMC) were obtained from 8-week-old female C57/BL6 mice by washing femurs and tibias with α-MEM. BMCs were then cultured overnight in full α-MEM containing 10% FBS, 100 U/mL penicillin, and 100 µg/mL streptomycin. Non-attached cells were collected and cultured with M-CSF (30 ng/ mL) for 3 days, and then the attached cells were used as BMM. All animal experiments were approved by Chonnam National University IACUC (approval number: CNU IACUC-YB-2019-49).
To generate osteoclasts, BMMs were harvested and cultured in a complete medium containing 30 ng/mL M-CSF and 50 ng/mL RANKL with or without compounds for approximately 4 days to obtain mature osteoclasts. Differentiated osteoclasts were fixed with 4% formalin for 15 minutes, and then the cells were stained using a TRAP staining kit. The spread of osteoclast areas could be observed under the microscope. The viability of BMM (1 × 10^4 cells/well) was assessed in a 96-well plate using a cell viability assay kit as previously described.

Structure (SMILES)	Inhibition rate (%)
COc1ccccc1OC(=O)c1cccc(NCC(=O)Nc2ccccc2Sc2ccccc2)c1 [Compound 25-KR-20, 2-Methoxyphenyl 3-((2-oxo-2-((2-(phenylthio)phenyl)amino)ethyl)amino) benzoate]	52.27±1.11
COc1ccc(OC(=O)c2cccc(NCC(=O)Nc3ccccc3Sc3ccccc3)c2)cc1 [Compound 25-KR-21, 4-Methoxyphenyl 3-((2-oxo-2-((2-(phenylthio)phenyl)amino)ethyl)amino) benzoate]	50.91 ± 1.93
O=C(CNc1cccc(C(=O)Oc2ccc(Cl)cc2)c1)Nc1ccccc1Sc1ccccc1 [Compound 25-KR-25, 4-Chlorophenyl 3-((2-oxo-2-((2-(phenylthio)phenyl)amino)ethyl)amino) benzoate]	43.18 ± 2.32

same assay, conditions: 2 µM; osteoclast differentiation in RANKL-induced BMM; mean ± SD from at least three experiments

Structure (SMILES)	Inhibition rate (%)
COC(=O)c1cccc(N(CC(=O)Nc2ccccc2Sc2ccccc2)S(C)(=O)=O)c1 [Compound 25-KR-01, Methyl 3-(N-(2-oxo-2-((2-(phenylthio)phenyl)amino)ethyl)methylsulfonamido) benzoate]	Inactive ^c
CS(=O)(=O)N(CC(=O)Nc1ccccc1Sc1ccccc1)c1cccc(C(=O)O)c1 [Compound 25-KR-02, 3-(N-(2-oxo-2-((2-(phenylthio)phenyl)amino)ethyl)methylsulfonamido)benzoic acid]	Inactive ^c
CC(C)(C)c1ccc(OC(=O)c2cccc(N(CC(=O)Nc3ccccc3Sc3ccccc3)S(C)(=O)=O)c2)cc1 [Compound 25-KR-04, 4-(tert-butyl)phenyl 3-(N-(2-oxo-2-((2-(phenylthio)phenyl)amino)ethyl)methylsulfonamido)benzoate]	Inactive ^c
Cc1ccccc1OC(=O)c1cccc(N(CC(=O)Nc2ccccc2Sc2ccccc2)S(C)(=O)=O)c1 [Compound 25-KR-05, o -Tolyl 3-(N -(2-oxo-2-((2-(phenylthio)phenyl)amino)ethyl)methylsulfonamido) benzoate]	Inactive ^c
Cc1cccc(OC(=O)c2cccc(N(CC(=O)Nc3ccccc3Sc3ccccc3)S(C)(=O)=O)c2)c1 [Compound 25-KR-06, m -Tolyl 3-(N-(2-oxo-2-((2-(phenylthio)phenyl)amino)ethyl)methylsulfonamido)benzoate]	Inactive ^c
Cc1ccc(OC(=O)c2cccc(N(CC(=O)Nc3ccccc3Sc3ccccc3)S(C)(=O)=O)c2)cc1 [Compound 25-KR-07, p -Tolyl 3-(N-(2-oxo-2-((2-(phenylthio)phenyl)amino)ethyl)methylsulfonamido) benzoate]	Inactive ^c
CS(=O)(=O)N(CC(=O)Nc1ccccc1Sc1ccccc1)c1cccc(C(=O)Oc2ccccc2C#N)c1 [Compound 25-KR-11, 2-Cyanophenyl 3-(N-(2-oxo-2-((2-(phenylthio)phenyl)amino)ethyl)methylsulfonamido)benzoate]	Inactive ^c
CS(=O)(=O)N(CC(=O)Nc1ccccc1Sc1ccccc1)c1cccc(C(=O)Oc2cccc([N+](=O)[O-])c2)c1 [Compound 25-KR-12, 3-Nitrophenyl 3-(N-(2-oxo-2-((2-(phenylthio)phenyl)amino)ethyl)methylsulfonamido)benzoate]	Inactive ^c
CS(=O)(=O)N(CC(=O)Nc1ccccc1Sc1ccccc1)c1cccc(C(=O)Oc2ccc([N+](=O)[O-])cc2)c1 [Compound 25-KR-13, 4-Nitrophenyl 3-(N-(2-oxo-2-((2-(phenylthio)phenyl)amino)ethyl)methylsulfonamido)benzoate]	Inactive ^c
CS(=O)(=O)N(CC(=O)Nc1ccccc1Sc1ccccc1)c1cccc(C(=O)Oc2cccc3ccccc23)c1 [Compound 25-KR-14, Naphthalen-1-yl 3-(N-(2-oxo-2-((2-(phenylthio)phenyl)amino)ethyl)methylsulfonamido)benzoate]	Inactive ^c
CS(=O)(=O)N(CC(=O)Nc1ccccc1Sc1ccccc1)c1cccc(C(=O)Oc2ccc3ccccc3c2)c1 [Compound 25-KR-15, Naphthalen-2-yl 3-(N-(2-oxo-2-((2-(phenylthio)phenyl)amino)ethyl)methylsulfonamido)benzoate]	Inactive ^c
CC(C)(C)[Si](C)(C)Oc1cccc(N(CC(=O)Nc2ccccc2Sc2ccccc2)S(C)(=O)=O)c1 [Compound 25-KR-16, 2-(N-(3-((tert-butyldimethylsilyl)oxy)phenyl)methylsulfonamido)-N-(2-(phenylthio)phenyl)acetamide]	Inactive ^c
CS(=O)(=O)N(CC(=O)Nc1ccccc1Sc1ccccc1)c1cccc(O)c1 [Compound 25-KR-17, 2-(N-(3-hydroxyphenyl)methylsulfonamido)-N-(2-(phenylthio)phenyl)acetamide]	Inactive ^c
CC(C)(C)[Si](C)(C)Oc1cccc(NCC(=O)Nc2ccccc2Sc2ccccc2)c1 [Compound 25-KR-18, 2-((3-((tert-butyldimethylsilyl)oxy)phenyl)amino)-N-(2-(phenylthio)phenyl)acetamide]	Inactive ^c
O=C(CNc1cccc(O)c1)Nc1ccccc1Sc1ccccc1 [Compound 25-KR-19, 2-((3-Hydroxyphenyl)amino)-N-(2-(phenylthio)phenyl)acetamide]	Inactive ^c

same assay, conditions: Mus musculus; 1 µM; osteoclast differentiation in RANKL-induced BMM; mean ± SD from at least three experiments; read-out: Inhibition rate (%)

Structure (SMILES)	inhibition at 1 µM [%]
Cc1ccccc1OC(=O)c1cccc(NCC(=O)Nc2ccccc2Sc2ccccc2)c1 [Compound 25-KR-22, o-Tolyl 3-((2-oxo-2-((2-(phenylthio)phenyl)amino)ethyl)amino)benzoate]	47.7 ± 11.4
Cc1cccc(OC(=O)c2cccc(NCC(=O)Nc3ccccc3Sc3ccccc3)c2)c1 [Compound 25-KR-23, m-Tolyl 3-((2-oxo-2-((2-(phenylthio)phenyl)amino)ethyl)amino)benzoate]	46.8 ± 13.4
Cc1ccc(OC(=O)c2cccc(NCC(=O)Nc3ccccc3Sc3ccccc3)c2)cc1 [Compound 25-KR-24, p-Tolyl 3-((2-oxo-2-((2-(phenylthio)phenyl)amino)ethyl)amino)benzoate]	36.8 ± 7.82

same assay, conditions: Mus musculus; 2 µM; osteoclast differentiation in RANKL-induced BMM; mean ± SD from at least three experiments; read-out: Inhibition rate (%)

Structure (SMILES)	inhibition at 2 µM [%]
NCCCC(O)(P(=O)(O)O)P(=O)(O)O [Alendronate, reference compound]	41.2 ± 8.68
COc1ccccc1OC(=O)c1cccc(N(CC(=O)Nc2ccccc2Sc2ccccc2)S(C)(=O)=O)c1 [Compound 25-KR-08, 2-Methoxyphenyl 3-(N-(2-oxo-2-((2-(phenylthio)phenyl)amino)ethyl)methylsulfonamido)benzoate]	37.6 ± 8.21
COc1ccc(OC(=O)c2cccc(N(CC(=O)Nc3ccccc3Sc3ccccc3)S(C)(=O)=O)c2)cc1 [Compound 25-KR-09, 4-Methoxyphenyl 3-(N-(2-oxo-2-((2-(phenylthio)phenyl)amino)ethyl)methylsulfonamido)benzoate]	45.8 ± 3.65
CS(=O)(=O)N(CC(=O)Nc1ccccc1Sc1ccccc1)c1cccc(C(=O)Oc2ccc(Cl)cc2)c1 [Compound 25-KR-10, 4-Chlorophenyl 3-(N-(2-oxo-2-((2-(phenylthio)phenyl)amino)ethyl)methylsulfonamido)benzoate]	47.4 ± 9.79

same assay, conditions: SAR summary in words of Table 2 (2 µM)

Structure (SMILES)	inhibitory effects on osteoclast formation
COc1ccccc1OC(=O)c1cccc(N(CC(=O)Nc2ccccc2Sc2ccccc2)S(C)(=O)=O)c1 [Compound 25-KR-08, 2-Methoxyphenyl 3-(N-(2-oxo-2-((2-(phenylthio)phenyl)amino)ethyl)methylsulfonamido)benzoate]	moderate inhibitory effects
COc1ccc(OC(=O)c2cccc(N(CC(=O)Nc3ccccc3Sc3ccccc3)S(C)(=O)=O)c2)cc1 [Compound 25-KR-09, 4-Methoxyphenyl 3-(N-(2-oxo-2-((2-(phenylthio)phenyl)amino)ethyl)methylsulfonamido)benzoate]	moderate inhibitory effects
CS(=O)(=O)N(CC(=O)Nc1ccccc1Sc1ccccc1)c1cccc(C(=O)Oc2ccc(Cl)cc2)c1 [Compound 25-KR-10, 4-Chlorophenyl 3-(N-(2-oxo-2-((2-(phenylthio)phenyl)amino)ethyl)methylsulfonamido)benzoate]	moderate inhibitory effects

From EP4635488A1, “PHARMACEUTICAL COMPOSITION FOR PREVENTING OR TREATING BONE DISEASES” (Industry Foundation of Chonnam National University, priority 2022, dated 2024)
